The nature of the data set: Pharmacokinetic study, bioavailability of folic acid encapsulated in zein nanoparticles. It counts as in vivo, male Wistar rats. The conditions noted are these: male, Wistar; for bioavailability: serum, rat, read-out: FR (relative bioavailability in percentage); for AUC: read-out: AUC (×10^4) (converted). Here is the method:
The pharmacokinetic studies were carried out according to the rules of the ethics committee of the Institution as well as the European laws on experimental animals (86/609/EU). To that end, 20 male Wistar rats with an average weight of 200 g were subjected to normal conditions of light-darkness (12 hours-12 hours), and during the week before the study they were fed with a folic acid-deficient feed (Folic Acid Deficient Diet. TD. 95247. Harlan, USA) and water. Twelve hours before the administration of the formulations, the rats were isolated in metabolic cages without access to food, but with free access to drinking water.
The animals were divided into 4 treatment groups (5 rats per group). Only 1 mL of PBS (Phosphate Buffer, pH 7.4) was orally administered to the first of the group. The two following groups were treated with single oral doses of 1 mg/kg (200 μg/rat) of folic acid (Aditio, Panreac Quimica, Barcelona, Spain) incorporated in zein nanoparticles, or in free form (not encapsulated) dissolved in water. 1 mL of each of the different formulations dispersed in water was administered through a gastroesophageal cannula. Finally, the same dose of free folic acid (1 mg/kg) dissolved in phosphate buffer (PBS) (0.5 mL) was intravenously administered to the fourth group in the saphenous vein. Before the administration of the formulations, blood was extracted from the tail saphenous vein for the purpose of checking the baseline level of the vitamin in each rat. After the administration, a volume of blood of approximately 500 μL was extracted at different times using serum-separating tubes ([…] Microtube 1.1 mL Z-Gel). In all the cases, to prevent the pain of the rats, the extraction was carried out after anesthetizing the animal with inhalational anesthesia (isoflurane:oxygen), checking their vital signs at all times.
The blood volume was subsequently replaced by intraperitoneally administering 500 μL of physiological saline previously heated to the temperature of the animal. During this period, the condition of the animals (mobility, aggressiveness, allergic reactions and temperature) was examined, no significant changes being observed.
The quantification of folic acid in the serum samples, obtained after centrifuging the tubes with blood (6,000 rpm, 20 minutes, 20° C.), was carried out by means of an enzyme immunoassay technique. To that end, an Elisa Kit (Diagnostic automation, INC. Calabasas, Calif. USA) approved by the FDA for the quantitative determination of folic acid in foods, was used. The serum samples were quantified without prior treatment and following the manufacturer's specifications.
In all the studied cases, the differences in the serum folic acid concentrations found by both methods were less than 10%. Therefore, the enzyme immunoassay technique was chosen to quantify all the samples, since it requires a smaller amount of serum for the analysis thereof and is a simpler and quicker technique, the limit of detection of which (2 ng/mL) is much lower than that of the chromatographic technique.
The pharmacokinetic study was divided into three phases. The first of them consisted of intravenously administering 1 mg/kg of folic acid dissolved in phosphate buffer; the second of them consisted of orally administering to the rats 1 mL of phosphate buffer (PBS) to a group of 5 male Wistar rats (the baseline levels of the vitamin over time were studied in this group of rats). Finally, the third phase consisted of orally administering 1 mg/kg of (i) folic acid dissolved in water, (ii) folic acid encapsulated in zein nanoparticles to groups of rats formed by 5 animals.
After the administration, a volume of blood of approximately 500 μL was extracted at different times (0, 1, 2, 3, 8 and 24 hours) and collected in serum-separating tubes, subsequently recovering the blood volume of the animal with an equivalent volume of saline by intraperitoneal route. […]

The mark [1] stands for this setting: rat serum, intravenous route, 1 mg/kg folic acid in PBS, mean ± SD, n = 5.
[2] abbreviates: rat serum, oral route, 1 mg/kg folic acid, mean ± SD, n = 5.

This note sets out measurements from US9381252B2, “Nanoparticles for encapsulation of compounds, the production and uses thereof” (UNIVERSIDAD DE NAVARRA, priority 2010, dated 2016).

Where two headings read alike, the source gives them in different places.

In general, bioavailability refers to the share of a dose that reaches the circulation, judged against a reference dose that is usually intravenous. The Cmax is the peak of the concentration-time curve. A word on the MRT: it is the average time that molecules of a dose stay in the body. What is called AUC is the area under the concentration-time curve, a measure of exposure. The Tmax is the time at which the peak concentration occurs. Turning to `Nc1nc2ncc(CNc3ccc(C(=O)N[C@@H](CCC(=O)O)C(=O)O)cc3)nc2c(=O)[nH]1` [Non-encapsulated FA, folic acid], where the note is “intravenous route, 1 mg/kg folic acid in PBS”, the bioavailability came out at 100%. In addition, the bioavailability (oral route, 1 mg/kg folic acid, mean ± SD, n = 5) was 36.3 ± 7.2%. Further, under setting [1], the Cmax came out at 4230 ± 1650 ng/mL, the MRT is 57.8 min and the AUC is 3580 ng·h/mL. Further, under setting [2], the peak level (Cmax) was 191 ± 41 ng/mL, the mean residence time MRT was 384 min, the Tmax was 58.8 min and the AUC is 1300 ng·h/mL.
